Legend:
Type in all cases: in vivo
Kochia (Kochia scoparia) [1] = experiment: Test A preemergence; settings: Bassia scoparia, pre-emergence, 240 h, 0 to 100 scale where 0 is no effect and 100 is complete control, read-out: Kochia plant response rating
Procedure, shortened: (§1)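 Greenhouse, ~10 d after spray; visual injury vs untreated controls, 0 = no effect, 100 = complete control. Preemergence: directed soil spray over planted seeds. Postemergence: plants 2–10 cm, 1–2 leaf stage. Loam/sand blend. Compound in non-phytotoxic solvent with surfactant.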

[2] = test system: barnyardgrass (Echinochloa crus-galli); experiment: Test A preemergence; settings: Echinochloa crus-galli, pre-emergence, 240 h, 0 to 100 scale where 0 is no effect and 100 is complete control, read-out: Barnyardgrass plant response rating
Procedure, shortened: as §1

[3] = test system: giant foxtail (Setaria faberii); experiment: Test A preemergence; settings: Setaria faberi, pre-emergence, 240 h, 0 to 100 scale where 0 is no effect and 100 is complete control, read-out: Foxtail, Giant plant response rating
Procedure, shortened: as §1

[4] = test system: pigweed (Amaranthus retroflexus); experiment: Test A preemergence; settings: Amaranthus retroflexus, pre-emergence, 240 h, 0 to 100 scale where 0 is no effect and 100 is complete control, read-out: Pigweed plant response rating
[5] = test system: ragweed (common ragweed, Ambrosia elatior); experiment: Test A preemergence; settings: Ambrosia artemisiifolia, pre-emergence, 240 h, 0 to 100 scale where 0 is no effect and 100 is complete control, read-out: Ragweed plant response rating
Procedure, shortened: as §1

[6] = test system: ryegrass, Italian (Italian ryegrass, Lolium multiflorum); experiment: Test A preemergence; settings: Lolium multiflorum, pre-emergence, 240 h, 0 to 100 scale where 0 is no effect and 100 is complete control, read-out: Ryegrass, Italian plant response rating
Procedure, shortened: as §1

[7] = test system: Galium (catchweed bedstraw, Galium aparine); experiment: Test A postemergence; settings: Galium, post-emergence, 240 h, read-out: Galium plant response rating (0 to 100 scale)
Procedure, shortened: as §1

Kochia (Kochia scoparia) [8] = experiment: Test A postemergence; settings: Bassia scoparia, post-emergence, 240 h, read-out: Kochia plant response rating (0 to 100 scale)
Procedure, shortened: as §1

[9] = test system: barnyardgrass (Echinochloa crus-galli); experiment: Test A postemergence; settings: Echinochloa crus-galli, post-emergence, 240 h, read-out: Barnyardgrass plant response rating (0 to 100 scale)
Procedure, shortened: as §1

[10] = test system: blackgrass (Alopecurus myosuroides); experiment: Test A postemergence; settings: Alopecurus myosuroides, post-emergence, 240 h, read-out: Blackgrass plant response rating (0 to 100 scale)
Procedure, shortened: as §1

corn (Zea mays) = experiment: Test A postemergence; settings: Zea mays, post-emergence, 240 h, read-out: Corn plant response rating (0 to 100 scale)
Procedure, shortened: as §1

[11] = test system: giant foxtail (Setaria faberii); experiment: Test A postemergence; settings: Setaria faberi, post-emergence, 240 h, read-out: Foxtail, Giant plant response rating (0 to 100 scale)
Procedure, shortened: as §1

[12] = test system: pigweed (Amaranthus retroflexus); experiment: Test A postemergence; settings: Amaranthus retroflexus, post-emergence, 240 h, read-out: Pigweed plant response rating (0 to 100 scale)
Procedure, shortened: as §1

[13] = test system: ragweed (common ragweed, Ambrosia elatior); experiment: Test A postemergence; settings: Ambrosia artemisiifolia, post-emergence, 240 h, read-out: Ragweed plant response rating (0 to 100 scale)
Procedure, shortened: as §1

[14] = test system: ryegrass, Italian (Italian ryegrass, Lolium multiflorum); experiment: Test A postemergence; settings: Lolium multiflorum, post-emergence, 240 h, read-out: Ryegrass, Italian plant response rating (0 to 100 scale)
Procedure, shortened: as §1

[15] = test system: wheat (Triticum aestivum); experiment: Test A postemergence; settings: Triticum aestivum, post-emergence, 240 h, read-out: Wheat plant response rating (0 to 100 scale)
Procedure, shortened: as §1

[16] = test system: barnyardgrass (Echinochloa crus-galli); experiment: Test B flooded paddy test; settings: Echinochloa crus-galli, 250 g ai/ha, Flood; 0 to 100 scale where 0 is no effect and 100 is complete control; read-out: Barnyardgrass plant response rating
Procedure, shortened: (§2)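 Plants at 2-leaf stage flooded to 3 cm above soil, with compounds applied directly to paddy water and that depth maintained. Plants kept in greenhouse 13–15 d. Visual rating versus controls on a 0 (no effect) to 100 (complete control) scale.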

[17] = test system: ducksalad (Heteranthera limosa); experiment: Test B flooded paddy test; settings: Heteranthera limosa, 250 g ai/ha, Flood; 0 to 100 scale where 0 is no effect and 100 is complete control; read-out: Ducksalad plant response rating
Procedure, shortened: as §2

rice (Oryra sativa) = experiment: Test B flooded paddy test; settings: Oryza sativa, 250 g ai/ha, Flood; 0 to 100 scale where 0 is no effect and 100 is complete control; read-out: Rice plant response rating
Procedure, shortened: as §2

[18] = test system: sedge, umbrella (small-flower umbrella sedge, Cyperus difformis); experiment: Test B flooded paddy test; settings: Cyperus difformis, 250 g ai/ha, Flood; 0 to 100 scale where 0 is no effect and 100 is complete control; read-out: Sedge, Umbrella plant response rating
Procedure, shortened: as §2

[19] = 125 g ai/ha, preemergence, visual injury rating, approximately 10 d
[20] = 125 g ai/ha, postemergence, visual injury vs untreated controls after approx. 10 d, 0 = no effect, 100 = complete control
[21] = Postemergence, 31 g ai/ha, 0 is no effect, 100 is complete control

Cc1cc([C@H]2CN(C)C(=O)[C@@H]2C(=O)Nc2cccc(F)c2F)no1 [Compound 1237]
pest or weed control at 31 g/ha (Kochia (Kochia scoparia) [1]; 31 g ai/ha, Preemergence): 0% | pest or weed control at 125 g/ha (Kochia (Kochia scoparia) [1]; [19]): 0% | pest or weed control at 31 g/ha ([2]; 31 g ai/ha, Preemergence): 0% | pest or weed control at 125 g/ha [2, 19]: 70% | pest or weed control at 31 g/ha ([3]; 31 g ai/ha, Preemergence): 20% | pest or weed control at 125 g/ha [3, 19]: 60% | pest or weed control at 31 g/ha ([4]; 31 g ai/ha, Preemergence): 0% | pest or weed control at 125 g/ha [4, 19]: 0% | pest or weed control at 31 g/ha ([5]; 31 g ai/ha, Preemergence): 0% | pest or weed control at 125 g/ha [5, 19]: 0% | pest or weed control at 31 g/ha ([6]; 31 g ai/ha, Preemergence): 0% | pest or weed control at 125 g/ha [6, 19]: 0% | pest or weed control at 125 g/ha [7, 20]: 0% | pest or weed control at 31 g/ha [7, 21]: 0% | pest or weed control at 125 g/ha (Kochia (Kochia scoparia) [8]; [20]): 0% | pest or weed control at 31 g/ha (Kochia (Kochia scoparia) [8]; [21]): 0% | pest or weed control at 125 g/ha [9, 20]: 20% | pest or weed control at 31 g/ha [9, 21]: 0% | pest or weed control at 125 g/ha [10, 20]: 0% | pest or weed control at 31 g/ha [10, 21]: 0% | plant injury at 125 g/ha (corn (Zea mays); [20]): 0% | plant injury at 31 g/ha (corn (Zea mays); [21]): 0% | pest or weed control at 125 g/ha [11, 20]: 20% | pest or weed control at 31 g/ha [11, 21]: 0% | pest or weed control at 125 g/ha [12, 20]: 0% | pest or weed control at 31 g/ha [12, 21]: 0% | pest or weed control at 125 g/ha [13, 20]: 0% | pest or weed control at 31 g/ha [13, 21]: 0% | pest or weed control at 125 g/ha [14, 20]: 0% | pest or weed control at 31 g/ha [14, 21]: 0% | plant injury at 125 g/ha [15, 20]: 0% | plant injury at 31 g/ha [15, 21]: 0% | pest or weed control at 250 g/ha [16]: 0% | pest or weed control at 250 g/ha [17]: 65% | pest or weed control at 250 g/ha (rice (Oryra sativa)): 0% | pest or weed control at 250 g/ha [18]: 0%
